Measured values as given in ChEMBL document CHEMBL1139720, “Synthesis and antiproliferative activity of (2R,3R)-disubstituted tetrahydropyrans” (2006).

Tests used:
Type in all cases: functional
WiDr = test: Antiproliferative activity against human WiDr cells after 48 hrs by SRB assay
SW1573 = test: Antiproliferative activity against human SW1573 cells after 48 hrs by SRB assay; settings: SW1573, 48 h
A2780 = test: Antiproliferative activity against human A2780 cells after 48 hrs by SRB assay; settings: A2780, 48 h

SMILES	GI50 (WiDr) [µM]	GI50 (SW1573) [µM]	GI50 (A2780) [µM]	TGI (SW1573) [µM]	LC50 (A2780) [µM]	TGI (A2780) [µM]	TGI (WiDr) [µM]
O=C(/C=C/[C@H]1OCCC[C@H]1O)OCc1ccccc1	> 100	> 100	> 100	–	–	–	–
CC(C)(C)[Si](C)(C)OC[C@H]1OCCC[C@H]1O[Si](C)(C)C(C)(C)C	> 100	> 100	> 100	–	–	–	–
O=C1C[C@H]2OCCC[C@H]2O1	> 100	> 100	> 100	–	–	–	–
CC(C)(C)[Si](C)(C)O[C@@H]1CCCO[C@@H]1/C=C\CO	> 100	> 100	> 100	–	–	–	–
C=C[C@H]1OCCC[C@H]1O[Si](C)(C)C(C)(C)C	> 100	> 100	86	–	–	–	–
COC(=O)/C=C\[C@H]1OCCC[C@H]1O[Si](C)(C)C(C)(C)C	38	6.3	7.3	68	86	39	–
COC(=O)/C=C/[C@H]1OCCC[C@H]1O[Si](C)(C)C(C)(C)C	> 100	> 100	98	–	–	–	–
CC(C)(C)[Si](C)(C)O[C@@H]1CCCO[C@@H]1/C=C/C(=O)OCc1ccccc1	90	37	32	–	–	–	–
O=C1C=C[C@H]2OCCC[C@H]2O1	39	5.7	8.3	–	–	35	–
COC(=O)/C=C/[C@H]1OCCC[C@H]1O	> 100	> 100	> 100	–	–	–	–
COC(=O)/C=C/[C@H]1OCCC[C@@H]1O[Si](C)(C)C(C)(C)C	84	47	28	–	–	–	–
CC(C)(C)[Si](C)(C)O[C@@H]1CCCO[C@@H]1/C=C\C(=O)OCc1ccccc1	20	26	29	92	–	77	64
CC(C)(C)[Si](C)(C)O[C@@H]1CCCO[C@@H]1CO	> 100	> 100	> 100	–	–	–	–
CC(C)(C)[Si](C)(C)O[C@@H]1CCCO[C@@H]1CC(=O)OCc1ccccc1	19	30	23	–	–	–	–
CC(C)(C)[Si](C)(C)O[C@@H]1CCCO[C@@H]1/C=C/C(=O)O	> 100	> 100	> 100	–	–	–	–
O=C(C[C@H]1OCCC[C@H]1O)OCc1ccccc1	> 100	> 100	> 100	–	–	–	–
